Measured values: patent publication US20230303584A1, “4,5,6,7-TETRAHYDROTHIENO[2,3-C]PYRIDINE SUMO INHIBITORS AND USES THEREOF” (SUVALENT THERAPEUTICS INC., priority 2020, published 2023)

Experiments:
[1] = system: SUMO 2/3 conjugates (sumoylation levels) in HCT-116 cells; assay: HCT-116 4 hour cell assay, immunoblot of SUMO 2/3 conjugates; format: cell-based; details: 4 h treatment, Western blot, read-out: Cell HCT-116 Western SUMO 2/3 4 h IC50 (uM) Ave
Protocol: This protocol describes the procedures used to assess the effects of compounds of interest on sumoylation levels. Immunoblot of SUMO ⅔ conjugates are performed and IC50 curves are generated upon quantification of sumoylations bands. HCT-1 16 cells are seeded in a 12 well plate (500,000 cells/well). The following day the cells are treated with compounds of interest (resuspended in DMSO) for 4 hours (11 concentrations with a three-fold dilution; starting concentration 25 µM) Following 4 hours of incubation the cells are washed with ice cold PBS 1X and protein extraction is performed with RIPA buffer supplemented with phosphatases and proteases inhibitors, 25 mM of NEM and 50 units/mL of Benzonase . Samples undergo centrifugation at 13,000 RPM, 4° C., for 10 minutes and the supernatant is collected. Protein quantification is performed using BCA. Non-Reducing Laemmli Buffer is added to the samples. Samples are heated at 75° C. for 10 minutes, and are centrifuged for 3 minutes at 9000 RPM Nupage 4-12% Bis Tris gels and 1x MOPS buffer (Fisher Scientific) + 1x NuPAGE Antioxidant (Invitrogen) are used to perform the SDS-PAGE gel electrophoresis (20 to 40 µg of proteins are loaded in the gels). Proteins are then transferred to PVDF membranes and the level of total proteins are measured by staining with Revert Total Protein Stain and the fluorescent bands are acquired using the LI-COR FC (700 nm for 1 min) Membranes are blocked for 5 minutes with Bio-Rad Blocking Buffer and are subsequently incubated over night at 4° C. with Anti-Sumo 2-3 mAb (MBL #M114-3, 1:1000 in Bio-Rad Blocking Buffer, 0.2% Tween 20) Membranes are washed with 1X TBS-T (3 times for 5 minutes) and sumoylation is detected using Li-cor IRDye 800CW Goat anti-Mouse IgG secondary antibody (1:10,000 dilution) upon 1 hour of incubation in blocking buffer with 0.2% Tween 20 and 0.01% SDS. After the incubation, the membranes are washed with 1X TBS-T (3 times for 5 minutes). To visualize the fluorescent bands the membranes are scanned with LI-COR FC (700 nm for 1 min and […] for 2 mins) Sumoylation levels are quantified upon normalization with total protein levels, using the LI-COR Image Studio Lite 5.2 Software.

[2] = target: SAE1 (Homo sapiens (Human), UniProt Q9UBT2); assay: SAE high throughput biochemical (HTRF) assay; details: 15 min preincubation; 100 µM ATP; read-out: 15 min preincubation HTRF IC50 (uM) Ave
Protocol: Assay buffer was prepared [50 mM HEPES, pH 7.5, 0.1% BSA and 10 mM MgCl2] as was the Stop Buffer [100 mM HEPES, pH 7.5, 0.05% Tween20, and 410 mM KF]. The 2x Reaction Buffer [80 nM SUMO-GST, 80 nM UBC9-His, 200 µM ATP and diluted in Assay Buffer] and Antibody Reaction Mix [13.34 nM anti-GST XL665, 1.66 nM anti-His EuK and Diluted in Stop Buffer] were also prepared. Compounds were dissolved at 200x in DMSO in a 384-well plate. Serial dilutions were performed in DMSO for each compound, and then each concentration was diluted another 50-fold in Assay Buffer, to 4x the final concentration. 2.5 µL of each concentration was transferred into its own well in a 384-well plate. SAE1 was then diluted to 4x in Assay Buffer, and 2.5 µL of 4x SAE1 was mixed into each compound-containing well. After incubating for 15 minutes at room temperature, 5 µL of 2x Reaction Buffer was mixed into every well. Then after another 45 minutes at room temperature, 10 µL of Antibody Reaction Mix was added and mixed into every well. This plate was then read on an HTRF-compatible plate reader after 2 hours at room temperature, and again after sitting at room temperature overnight. [Final Component Concentrations: SAE1: 12.5 nM; SUMO-GST: 40 nM; UBC9-His: 40 nM; Anti-GST-XL665: 6.67 nM; Anti-His-EuK: 0.83 nM; and ATP: 100 µM ] Alternatively, the compounds are tested at a single concentration of 25 micromolar and the percent of control is measured.

[3] = target: SUMO activating enzyme (E1) (Homo sapiens (Human), UniProt Q9UBT2); assay: Inhibitory effect on activating enzyme (E1), 15 min preincubation (Table 2); format: biochemical; details: enzyme preincubated with compound for 15 minutes; read-out: E1 biological activity
Protocol: Compounds are evaluated for their inhibitory effect on activating enzymes (E1) of ubiquitin, SUMO, Nedd8, Urm1, ISG15 or Atg7 using previously reported methods and protocols. One example is in: Allosteric inhibition of ubiquitin-like modifications by a class of inhibitor of SUMO-activating enzyme. Cell Chemical Biology, 26,1-11, 2019. PMID: 28051857. The enzyme was preincubated with the compounds for 15 minutes.

SAE1, sequence (Q9UBE0 whole entry partner): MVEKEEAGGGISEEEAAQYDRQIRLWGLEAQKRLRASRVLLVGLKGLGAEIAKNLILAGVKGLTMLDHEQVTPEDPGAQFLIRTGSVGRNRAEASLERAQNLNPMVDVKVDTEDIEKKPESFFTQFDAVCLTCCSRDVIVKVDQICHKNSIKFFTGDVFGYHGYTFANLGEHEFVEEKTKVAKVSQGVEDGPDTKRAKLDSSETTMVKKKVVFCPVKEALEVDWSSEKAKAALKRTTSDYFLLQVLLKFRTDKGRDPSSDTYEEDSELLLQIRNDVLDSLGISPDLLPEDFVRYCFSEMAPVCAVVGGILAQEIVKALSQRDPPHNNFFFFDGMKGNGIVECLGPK
SAE1, sequence (Q9UBT2 whole entry): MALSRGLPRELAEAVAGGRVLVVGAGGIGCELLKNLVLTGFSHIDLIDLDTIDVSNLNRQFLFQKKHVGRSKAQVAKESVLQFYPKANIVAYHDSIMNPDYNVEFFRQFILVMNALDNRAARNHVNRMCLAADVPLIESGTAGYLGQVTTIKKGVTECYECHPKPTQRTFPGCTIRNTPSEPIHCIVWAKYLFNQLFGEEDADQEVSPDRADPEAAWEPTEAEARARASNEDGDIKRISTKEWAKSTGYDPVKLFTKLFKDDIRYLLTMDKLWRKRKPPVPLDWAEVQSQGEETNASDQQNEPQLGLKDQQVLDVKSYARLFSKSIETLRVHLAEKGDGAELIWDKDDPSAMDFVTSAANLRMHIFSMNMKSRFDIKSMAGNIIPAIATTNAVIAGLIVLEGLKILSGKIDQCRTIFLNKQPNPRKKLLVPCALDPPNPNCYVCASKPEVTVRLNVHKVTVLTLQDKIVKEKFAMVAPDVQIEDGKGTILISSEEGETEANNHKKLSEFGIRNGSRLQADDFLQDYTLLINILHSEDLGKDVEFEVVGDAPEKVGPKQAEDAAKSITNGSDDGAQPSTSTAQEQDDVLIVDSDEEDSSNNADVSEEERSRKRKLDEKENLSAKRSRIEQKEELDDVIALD
SUMO activating enzyme (E1), sequence (Q9UBT2 whole entry): as above
SUMO activating enzyme (E1), sequence (Q9UBE0 whole entry partner): as the sequence (Q9UBE0 whole entry partner) above

IC50 [1] [µM] | IC50 [3] [nM] | SMILES | IC50 [2] [µM]
0.34 |  | C=CC(=O)N1Cc2sc(-c3ccco3)cc2[C@H](c2ccccc2-c2cn(CC)nc2C(F)(F)F)C1 [Compound 324] | 0.14
0.39 |  | CCn1cc(-c2ccccc2[C@@H]2CN(C(=O)/C=C/CF)Cc3sc(Cl)cc32)c(C(F)(F)F)n1 [Compound 323] | 0.13
0.33 |  | C=CC(=O)N1Cc2sc(C(=C)C)cc2[C@H](c2ccccc2-c2cn(CC)nc2C(F)(F)F)C1 [Compound 318] | 0.29

Further lines, the compound ahead of its results:

SMILES | IC50 [1] [µM] | IC50 [3] [nM] | IC50 [2] [µM]
C=CC(=O)N1Cc2sc(Cl)cc2[C@H](c2ccccc2-c2cn(C(C)C)nc2C(F)(F)F)C1 [Compound 255] |  | < 10000 | 
C=CC(=O)N1Cc2sc(Cl)cc2[C@H](c2ccccc2-c2cn(C(C)(C)C(N)=O)nc2C(F)(F)F)C1 [Compound 312] | 0.28 | < 10000 | 0.23
C=CC(=O)N1Cc2sc(Cl)cc2C(c2ccccc2-c2cn(-c3ccncc3Cl)nc2C(F)(F)F)C1 (stereo not shown) [Compound 340] |  |  | 0.93
C=CC(=O)N1Cc2sc(Cl)cc2[C@H](c2ccccc2-c2cnn(CC)c2CC)C1 [Compound 360] | 13.6 |  | 4.33
